According to ChEMBL document CHEMBL5523748, “Targeting Myeloperoxidase Ameliorates Gouty Arthritis: A Virtual Screening Success Story” (J Med Chem, 2024):
One block for each compound: values may come before it. Activity calls are given as the source filed them. The calls are words filed in the database; no cut-off is given here.

What was measured:
[1] = tested on: Mus musculus; assay: Downregulation of IL-1beta level in MSU-induced gouty arthritic male C57BL/6 mouse model at 30 mg/kg, ip preadministered with compound for 30 mins followed by MSU addition and measured after 6 hrs by ELISA; assay type: functional, organism-based; conditions: time 6.5 hrs
[2] = tested on: Mus musculus; assay: Reduction in total peroxidase activity in MSU-induced gouty arthritic male C57BL/6 mouse model at 30 mg/kg, ip preadministered with compound for 30 mins followed by MSU addition and measured after 6 hrs; assay type: functional, organism-based; conditions: time 6.5 hrs
[3] = tested on: Mus musculus; assay: Anti-inflammatory activity against MSU-induced gouty arthritis in male C57BL/6 mouse model assessed as inhibition of paw edema at 34 mg/kg, po preadministered with compound for 1 hrs followed by MSU administration and measured for 6 hrs by plethysmometer; assay type: functional, organism-based; conditions: time 7.0 hrs
[4] = tested on: Mus musculus; assay: Downregulation of IL-6 level in MSU-induced gouty arthritic male C57BL/6 mouse model at 30 mg/kg, ip preadministered with compound for 30 mins followed by MSU addition and measured after 6 hrs by ELISA; assay type: functional, organism-based; conditions: time 6.5 hrs
[5] = tested on: Mus musculus; assay: Anti-inflammatory activity against MSU-induced gouty arthritis in male C57BL/6 mouse model assessed as prevention of paw edema at 3 to 30 mg/kg, ip preadministered with compound for 30 mins followed by MSU administration and measured upto 4 hrs by plethysmometer; assay type: functional, organism-based; conditions: dose 3-30 mg/kg
[6] = target: T1, Myeloperoxidase (Homo sapiens) (UniProt P05164); assay: Inhibition of human leukocyte MPO chlorinating activity using hydrogen peroxide as substrate at 20 uM preincubated for 15 mins followed by substrate addition and measured after 8 mins relative to control; conditions: time 23.0 min
T1 sequence (whole entry): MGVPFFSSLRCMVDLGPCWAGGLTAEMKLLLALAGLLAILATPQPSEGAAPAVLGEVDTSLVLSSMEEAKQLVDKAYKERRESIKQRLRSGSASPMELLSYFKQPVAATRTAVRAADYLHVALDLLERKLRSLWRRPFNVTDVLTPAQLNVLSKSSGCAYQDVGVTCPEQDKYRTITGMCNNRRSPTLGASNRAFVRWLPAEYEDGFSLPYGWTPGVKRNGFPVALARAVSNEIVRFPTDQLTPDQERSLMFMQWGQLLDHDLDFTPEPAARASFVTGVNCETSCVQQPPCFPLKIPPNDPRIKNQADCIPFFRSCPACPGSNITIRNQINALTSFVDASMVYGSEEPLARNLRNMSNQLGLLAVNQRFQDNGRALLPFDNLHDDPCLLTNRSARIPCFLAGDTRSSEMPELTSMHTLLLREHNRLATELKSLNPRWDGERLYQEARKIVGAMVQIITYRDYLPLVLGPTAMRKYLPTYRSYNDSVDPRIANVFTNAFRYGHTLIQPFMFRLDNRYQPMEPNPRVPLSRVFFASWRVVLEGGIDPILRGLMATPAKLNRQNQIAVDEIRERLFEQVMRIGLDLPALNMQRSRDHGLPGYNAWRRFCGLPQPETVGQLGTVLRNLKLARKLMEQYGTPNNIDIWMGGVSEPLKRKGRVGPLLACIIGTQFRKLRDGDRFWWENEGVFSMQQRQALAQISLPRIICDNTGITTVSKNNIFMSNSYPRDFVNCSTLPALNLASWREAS

[7] = target: T1, Myeloperoxidase (Homo sapiens); assay: Inhibition of human leukocyte MPO peroxidase activity using hydrogen peroxide as substrate by fluorescence based analysis
[8] = Antioxidant activity assessed as taurine chloramine scavenging activity incubated for 15 mins; assay type: functional
[9] = tested on: Neutrophil; assay: Inhibition of HOCl production in human neutrophil at 20 uM incubated for 1 hrs in presence of PMA; assay type: functional, cell-based
[10] = tested on: dHL-60; assay: Inhibition of HOCl production in human dHL-60 cells at 20 uM incubated for 1 hrs in presence of PMA; assay type: functional, cell-based
[11] = tested on: Mus musculus; assay: Anti-inflammatory activity against MSU-induced gouty arthritis in male C57BL/6 mouse model assessed as prevention of paw edema at 30 mg/kg, ip preadministered with compound for 30 mins followed by MSU administration and measured upto 4 hrs by plethysmometer; assay type: functional, organism-based
[12] = tested on: Neutrophil; assay: Inhibition of MSU-induced NETosis in human neutrophil assessed as reduction in nuclear expansion at 20 uM incubated for 90 mins by sytox green staining based fluorescence microscopic analysis; assay type: functional, cell-based
[13] = target: T1, Myeloperoxidase (Homo sapiens); assay: Reversible inhibition of human leukocyte MPO using hydrogen peroxide as substrate assessed as restoration of MPO peroxidase activity at 20 uM incubated for 30 mins and measured after dilution using acetate buffer in presence of TMB
[14] = tested on: Neutrophil; assay: Inhibition of MSU-induced NETosis in human neutrophil assessed as reduction in release of large DNA scaffolds at 20 uM incubated for 90 mins by sytox green staining based fluorescence microscopic analysis; assay type: functional, cell-based
[15] = tested on: TERT-RPE1; assay: Cytotoxicity against human hTERT-RPE1 cells assessed as reduction in cell viability at 2 to 50 uM measured after 72 hrs by XTT assay; assay type: toxicity, cell-based; conditions: tert-rpe1, 72 h, dose 2-50 µM
[16] = Reactivity of the compound in phosphate buffer at pH 7.4 assessed as compound oxidation by measuring decrease in fluorescence spectra in presence of MPO by fluorescence microplate reader; assay type: physicochemical
[17] = tested on: Mus musculus; assay: Anti-inflammatory activity against MSU-induced gouty arthritis in male C57BL/6 mouse model assessed as prevention of paw edema at 3 to 30 mg/kg, ip preadministered with compound for 30 mins followed by MSU administration and measured for 6 hrs by plethysmometer; assay type: functional, organism-based; conditions: dose 3-30 mg/kg, time 6.5 hrs
[18] = Reactivity of the compound in phosphate buffer at pH 7.4 assessed as compound oxidation by measuring decrease in fluorescence spectra in presence of MPO, H2O2 and tyrosine by fluorescence microplate reader; assay type: physicochemical
[19] = Reactivity of the compound in phosphate buffer at pH 7.4 assessed as compound oxidation by measuring decrease in fluorescence spectra in presence of MPO and chloride by fluorescence microplate reader; assay type: physicochemical
[20] = Reactivity of the compound in phosphate buffer at pH 7.4 assessed as compound oxidation by measuring decrease in fluorescence spectra in presence of H2O2 by fluorescence microplate reader; assay type: physicochemical
[21] = target: Poly [ADP-ribose] polymerase 1 (Homo sapiens) (UniProt P09874); assay: Inhibition of PARP1-induced ADP-ribosylation in human hTERT-RPE1 cells at 1 to 50 uM preincubated with compound for 1 hrs followed by H2O2 addition and measured after 10 mins; assay type: cell-based; conditions: dose 1-50 µM, time 70.0 min
Chain of Poly [ADP-ribose] polymerase 1 (Homo sapiens) (P09874 whole entry): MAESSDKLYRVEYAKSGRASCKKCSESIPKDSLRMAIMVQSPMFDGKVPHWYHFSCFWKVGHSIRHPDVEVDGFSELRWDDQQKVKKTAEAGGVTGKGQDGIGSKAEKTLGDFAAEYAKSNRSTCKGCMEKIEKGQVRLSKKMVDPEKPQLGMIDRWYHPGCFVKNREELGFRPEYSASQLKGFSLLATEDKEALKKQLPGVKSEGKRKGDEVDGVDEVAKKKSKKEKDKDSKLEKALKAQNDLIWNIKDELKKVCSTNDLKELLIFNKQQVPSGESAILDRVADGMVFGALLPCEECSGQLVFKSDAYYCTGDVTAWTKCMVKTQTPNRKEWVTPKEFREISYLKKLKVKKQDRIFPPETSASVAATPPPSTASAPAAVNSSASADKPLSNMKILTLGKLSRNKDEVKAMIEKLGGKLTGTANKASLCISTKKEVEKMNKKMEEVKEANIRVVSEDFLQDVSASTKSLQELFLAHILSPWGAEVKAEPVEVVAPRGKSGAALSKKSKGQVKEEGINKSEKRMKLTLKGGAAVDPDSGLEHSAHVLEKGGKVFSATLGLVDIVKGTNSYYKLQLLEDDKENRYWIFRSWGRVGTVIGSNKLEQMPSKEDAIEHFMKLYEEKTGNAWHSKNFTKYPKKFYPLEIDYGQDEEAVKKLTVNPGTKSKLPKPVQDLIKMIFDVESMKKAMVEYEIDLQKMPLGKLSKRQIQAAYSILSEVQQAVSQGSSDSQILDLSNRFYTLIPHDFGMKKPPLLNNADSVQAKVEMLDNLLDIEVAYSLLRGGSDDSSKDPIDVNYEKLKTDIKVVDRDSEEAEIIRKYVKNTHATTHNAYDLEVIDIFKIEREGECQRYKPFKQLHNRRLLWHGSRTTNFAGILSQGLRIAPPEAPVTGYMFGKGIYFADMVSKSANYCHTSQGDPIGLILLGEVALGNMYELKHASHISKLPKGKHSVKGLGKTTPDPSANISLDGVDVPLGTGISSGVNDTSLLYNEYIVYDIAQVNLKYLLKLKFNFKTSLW

[22] = Reactivity of the compound in phosphate buffer at pH 7.4 assessed as compound oxidation by measuring decrease in fluorescence spectra in presence of H2O2 and chloride by fluorescence microplate reader; assay type: physicochemical
[23] = tested on: Mus musculus; assay: Anti-inflammatory activity against MSU-induced gouty arthritis in male C57BL/6 mouse model assessed as prevention of paw edema at 0.3 mg/kg, ip preadministered with compound for 30 mins followed by MSU administration and measured for 4 hrs by plethysmometer; assay type: functional, organism-based
[24] = tested on: TERT-RPE1; assay: Cytotoxicity against human hTERT-RPE1 cells assessed as reduction in cell viability at 50 uM measured after 72 hrs by XTT assay; assay type: toxicity, cell-based; conditions: tert-rpe1, 72 h
[25] = Reactivity with Hypochlorous acid (HOCl) in phosphate buffer at pH 7.4 assessed as fluorescence decay at 20 uM measured within 1 sec by stopped-flow spectrophotometric analysis; assay type: physicochemical; conditions: pH 7.4, 1 s
[26] = tested on: Mus musculus; assay: Anti-inflammatory activity against MSU-induced gouty arthritis in male C57BL/6 mouse model assessed as prevention of paw edema at 3 to 30 mg/kg, ip preadministered with compound for 30 mins followed by MSU administration and measured for 1 to 4 hrs by plethysmometer; assay type: functional, organism-based; conditions: dose 3-30 mg/kg, time lower 1.5 hrs, time upper […]

SMILES: CCc1c(O)[nH]c2nc3ccccc3n2c1=O
Activity [1]: inactive
Activity [2]: inactive
Activity [3]: inactive
Activity [4]: inactive
Activity [5]: Active

SMILES: N#CC1=C(N)Oc2c(c(=O)sc3ccccc23)C1c1ccc(F)cc1 (centres undefined)
inhibition [6]: inactive

SMILES: O=c1c2cnc3cc(C(F)(F)F)ccc3c2sc2nncn12
inhibition [7]: inactive
inhibition [6]: inactive

SMILES: CCCOc1ccc(C2C(C#N)=C(N)SC(N)=C2C#N)cc1OC
Activity [8]: Active

SMILES: Cc1cccc(Nc2ccccc2C(=O)O)c1C
Activity [1]: inactive
Activity [2]: inactive
Activity [11]: Active
Activity [4]: inactive

SMILES: Nc1cc2c3c(cccc3c1)C(=O)N(N)C2=O
inhibition [12]: Active
inhibition [13]: Active
inhibition [14]: Active
Activity [15]: Non-Toxic
Activity [8]: inactive
Drug metabolism [16]: Metabolite_Notdetected
Activity [17]: Active
inhibition [9]: Active
Drug metabolism [18]: Metabolite_Notdetected
inhibition [10]: Active
Drug metabolism [19]: Metabolite_Notdetected
Drug metabolism [20]: Metabolite_Notdetected
inhibition [21]: inactive
Drug metabolism [22]: Metabolite_Notdetected
Activity [4]: inactive

SMILES: CCCc1cc(=O)[nH]c(=S)[nH]1
inhibition [12]: Active
inhibition [14]: Active
inhibition [9]: Active
inhibition [10]: Active

More lines, main results first:

inhibition [7]: inactive
SMILES: COc1ccc(C(=O)Nc2ccc(-c3nnc(S)o3)cc2)cc1
Activity [8]: Active
inhibition [9]: inactive
inhibition [10]: inactive

inhibition [6]: inactive
SMILES: CCOC(=O)C(Cc1ccc(O)cc1)NC1=CC(=O)C(=O)c2ccccc21 (centres undefined)

inhibition [7]: inactive
inhibition [6]: inactive
SMILES: CN(C)CCc1c(C#N)c(=O)ncn1Cc1ccccc1

inhibition [6]: inactive
SMILES: COc1cc(/C=N/NC(=O)c2ccoc2C)ccc1OCCN1CCCCC1

inhibition [7]: inactive
inhibition [6]: inactive
SMILES: CCCNc1ncnc2cc(-c3ccc(OC)cc3)sc12

inhibition [7]: inactive
Drug metabolism [16]: Metabolite_Notdetected
Drug metabolism [19]: Metabolite_Detected
Drug metabolism [20]: Metabolite_Notdetected
Drug metabolism [22]: Metabolite_Detected
Drug metabolism [25]: Metabolite_Detected
SMILES: CN1CCc2nc3sc(C(=O)Nc4cccc(C#N)c4)c(N)c3cc2C1
Activity [23]: Active
inhibition [12]: Active
Activity [24]: Toxic
inhibition [14]: Active
Activity [8]: inactive
Activity [1]: inactive
inhibition [9]: Active
Activity [2]: inactive
inhibition [10]: Active
Activity [26]: Active
Activity [4]: inactive
